Data published in US11767303B2, “Compounds and methods for inhibiting viral replication and methods of treating and preventing flaviviral infections” (priority 2020, dated 2023).
“Also recorded” adds a separate entry of the source.

Legend:
ZIKV [1] = assay: qRT-PCR of viral RNA from ZIKV-infected A549 cells; type: cell-based, Zika virus
Experimental: Quantitative qRT-PCR. Quantitative qRT-PCR was performed as described previously. Li et al., “Existing Drugs as Broad-Spectrum and Potent Inhibitors for Zika Virus by Targeting NS2B-NS3 Interaction,” Cell Res. 27:1046-1064 (2017); Li et al., “Erythrosin B is a Potent and Broad-Spectrum Orthosteric Inhibitor of the Flavivirus NS2B-NS3 Protease,” Antiviral Res. 150:217-225 (2018), which are hereby incorporated in their entirety. ZIKV primers […] (SEQ ID NO: 12) and […] (SEQ ID NO: 13) with ZIKV probe Cy5-[…]/TAO/[…]-IAbRQSp (SEQ ID NO: 14) were used. The 2-ΔΔCT (“delta-delta Ct”) method was used to quantify samples. All experiments were performed in triplicates.

[2] = system: ZIKV strain PRVABC59 or ZIKV-Venus; assay: ZIKV infection of 3D mini-brain organoids; type: cell-based, Zika virus; details: 1.5 μM
Source text: Culturing of human iPSCs. Human iPSC F11350.1 culture was maintained in feed-free conditions using mTeSR1 medium (StemCell Technologies #85851) with 5× supplement (StemCell Technologies #85852). Cells were maintained on six-well plates coated with human embryonic stem cell-qualified Matrigel at a 1:60 dilution (Corning Catalog #354277) and passaged with ReLeSR (StemCell Technologies #05872). Cortical 3D organoids were generated based on the protocol described by Yoon et al. Yoon et al., “Reliability of Human Cortical Organoid Generation,” Nat. Methods. […] Briefly, iPSCs were dissociated with accutase (ThermoFisher #A1110501) and then plated at a density of 3×10^6 cells per well in AggreWell 800 24-well plate (StemCell Technologies #34811) in Essential 8™ medium (ThermoFisher #A1517001) supplemented with 10 μM rock inhibitor (Tocris #Y27632). The plate was centrifuged at 100×g for 3 min and incubated at 37° C. overnight. […]
To evaluate if JMX0207 protects organoids from ZIKV infections, a full-length infectious ZIKV clone expressing Venus fluorescent protein (ZIKV-Venus) was first generated. […] ZIKV infection was quantified by a plaque forming unit (PFU) assay at 5 dpi and by fluorescence imaging at 7 dpi, respectively. […]

ZIKV [3] = assay: Time of addition experiment; type: cell-based, Zika virus; details: 0.75 μM added post-infection, titers at 48 hrs
Experimental: FIGS. 6A-6C show mechanism of action studies. […] Viral titers were quantified using plaque forming assay 48 hrs post-infection. DMSO was added to control. N=3. ***, p<0.001. […] N=3. […] Right, Band intensities of PP and NS3 normalized to the GAPDH control (N=3). […] Li et al., “Existing Drugs as Broad-Spectrum and Potent Inhibitors for Zika Virus by Targeting NS2B-NS3 Interaction,” Cell Res. 27:1046-1064 (2017), which is hereby incorporated by reference in its entirety. At 48 hrs post-infection, cells were washed, harvested, and protected by protease inhibitor cocktail prior to lysis by SDS-PAGE loading buffer. Upon incubation at 95° C. for 10 min, sample was subjected to Western blot analysis with anti-ZIKV NS3 (GTX133309, GeneTex, Inc.) and anti-GAPDH (CB1001, EMD Millipore) as primary antibodies. Error bars in all panels represent the standard deviations at each condition.
Antiviral inhibitors are generally divided into two categories, entry and post-entry (replication), respectively.

[4] = not told

O=C(Nc1ccc([N+](=O)[O-])cc1Cl)c1cccc([N+](=O)[O-])c1O [JMX0207, N-(2-Chloro-4-nitrophenyl)-2-hydroxy-3-nitrobenzamide]
ZIKV RNA copy number (ZIKV [1]): significantly reduced the ZIKV RNA copy number in a dose-dependent manner | ZIKV infection of 3D organoid ([2]; MOI 1, imaging/immunostaining): completely abolished ZIKV infection; also recorded: nearly completely protected the organoids from ZIKV infection | ZIKV production from 3D organoids ([2]; PFU assay at 5 dpi): ZIKV production was also significantly inhibited | reduction of ZIKV titer by time of addition (ZIKV [3]): equally effective in reducing ZIKV titer even at 24 hrs post-infection | logP (LogP): 2.72 | Perme. (cell permeability) [4]: 1.3 ×10⁻⁶ cm/s
